According to the NIST ThermoML archive (doi:10.1016/j.jct.2006.03.015):

Assay: mn = molality of the nth substance listed, in mol/kg
Details: 101 kPa, Liquid; for apparent molar heat capacity: Flow calorimetry

CC(=O)N[C@@H](CC(N)=O)C(N)=O [(S)-2-acetamidosuccinamide] + O
Details	apparent molar heat capacity [J/K/mol]	mass density [kg/m3]
288.15 K, m1 = 0.0291	307.3	1000.53
288.15 K, m1 = 0.03172	310	1000.65
288.15 K, m1 = 0.0368	307.6	1000.9
288.15 K, m1 = 0.03929	308.2	1001.03
288.15 K, m1 = 0.04222	309.5	1001.17
288.15 K, m1 = 0.04651	305.7	1001.38
288.15 K, m1 = 0.05278	306.6	1001.68
288.15 K, m1 = 0.05772	302.8	1001.92
288.15 K, m1 = 0.06036	303.7	1002.04
288.15 K, m1 = 0.06513	306.5	1002.28
288.15 K, m1 = 0.07059	308	1002.54
298.15 K, m1 = 0.02807	333.1	998.384
298.15 K, m1 = 0.03296	329.6	998.617
298.15 K, m1 = 0.0381	333.3	998.865
298.15 K, m1 = 0.04348	330.6	999.124
298.15 K, m1 = 0.04618	330.2	999.246
298.15 K, m1 = 0.05136	330.7	999.495
298.15 K, m1 = 0.05666	333.4	999.741
298.15 K, m1 = 0.06197	330.9	–
298.15 K, m1 = 0.06198	333	999.991
298.15 K, m1 = 0.06667	332.5	1000.22
298.15 K, m1 = 0.07247	331	1000.49
313.15 K, m1 = 0.03215	353.5	993.709
313.15 K, m1 = 0.03777	356	993.972
313.15 K, m1 = 0.04273	355.6	994.186
313.15 K, m1 = 0.04501	361.1	994.291
313.15 K, m1 = 0.0481	358.6	994.444
313.15 K, m1 = 0.05166	353.7	994.598
313.15 K, m1 = 0.05423	357.7	994.726
313.15 K, m1 = 0.06055	358.6	995.006
313.15 K, m1 = 0.06612	356.4	995.264
313.15 K, m1 = 0.07077	355.6	995.471
313.15 K, m1 = 0.07187	357.7	995.524
328.15 K, m1 = 0.03205	378.3	987.15
328.15 K, m1 = 0.03805	377.4	987.418
328.15 K, m1 = 0.0428	373.4	987.633
328.15 K, m1 = 0.04683	379.4	987.812
328.15 K, m1 = 0.05183	377.2	988.042
328.15 K, m1 = 0.05694	380.7	988.263
328.15 K, m1 = 0.06115	377.1	988.455
328.15 K, m1 = 0.06488	376.5	988.623
328.15 K, m1 = 0.06958	380.2	988.834
